Ki data for three molecules are collected here from PMC1065314, “A2B adenosine receptor activity is reduced in neutrophils from patients with systemic sclerosis” (Arthritis Research & Therapy, 2004).

The target of this assay is T1, A2B adenosine receptor (Homo sapiens, UniProt P29275).
T1 construct: Aliquots of neutrophil membranes (0.2–0.4 mg proteins) were incubated in a final volume of 250 μl T2 buffer; from tissue; host or cells: neutrophils from healthy volunteers and systemic sclerosis patients (membranes)
T1 sequence (P29275 1-332): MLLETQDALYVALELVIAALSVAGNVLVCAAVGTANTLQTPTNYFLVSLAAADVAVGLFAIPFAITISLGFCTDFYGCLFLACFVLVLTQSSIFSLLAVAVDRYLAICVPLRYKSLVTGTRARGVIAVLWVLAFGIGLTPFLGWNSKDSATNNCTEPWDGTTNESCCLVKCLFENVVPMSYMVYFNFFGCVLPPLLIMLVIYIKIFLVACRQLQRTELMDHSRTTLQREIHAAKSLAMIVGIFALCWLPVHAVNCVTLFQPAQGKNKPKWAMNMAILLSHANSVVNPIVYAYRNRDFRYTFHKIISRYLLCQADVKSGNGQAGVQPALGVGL
Nature of the assay: [3H]NECA binding to A2B AR in neutrophil membranes (plus CPA and SCH58261). To be noted: read-out: [^3H]NECA Ki; control neutrophil membranes; competition with 20 nmol/l [3H]NECA plus 50 nmol/l CPA and 100 nmol/l SCH58261; mean ± SEM of three experiments; Cheng and Prusoff. The protocol:
For membrane preparation, cells were washed twice with 10 mmol/l Tris-HCl buffer, pH 7.4, containing 10 mmol/l MgCl2, in the presence of protease inhibitors (200 μg/ml bacitracine, 160 μg/ml benzamidine, 20 μg/ml trypsin inhibitor [T1]) and centrifuged at 48,000 g for 15 min at 4°C. Pellets were diluted in 20 volumes of T1 buffer, treated with ADA (2 IU/ml) for 60 min at 37°C to remove endogenous adenosine, and washed twice with 50 mmol/l Tris-HCl buffer, pH 7.4, containing 10 mmol/l MgCl2 (T2).
Aliquots of neutrophil membranes (0.2–0.4 mg proteins) were incubated in a final volume of 250 μl T2 buffer. […] After 90 min incubation at 0°C, the reaction was terminated either by vacuum filtration through Whatman GF/C glass fibre filters, accompanied by three washes with ice-cold T2 buffer (4 ml), or by centrifugation at 2900 g for 15 min at 4°C. A2B AR specificity was evaluated through competition experiments, using different AR ligands.
On to `CCCn1c(=O)c2[nH]c(-c3ccc(OCC(=O)Nc4ccc(C(C)=O)cc4)cc3)nc2n(CCC)c1=O` [MRS1706], for which the inhibition constant Ki (as a rule, a dissociation constant, usually derived from enzyme kinetics or from competition with a known ligand) amounted to 5 ± 0.3 nM.
To `O=C(Cc1ccccc1)Nc1nc2ccc(Cl)cc2c2nc(-c3ccco3)nn12` [MRS1220] belongs above 10000 nM.
To `Nc1nc(Cl)nc2c1ncn2[C@@H]1O[C@H](CO)[C@@H](O)[C@H]1O` [2 Cl-adenosine] belongs 954 ± 600 nM.
